{
  "source": "patent US8211887B2",
  "about": "“Topical preparation and method for transdermal delivery and localization of therapeutic agents” (priority 2005, dated 2012)",
  "origin": "cited, not measured here",
  "key": {"[1]": {"conditions": "local anesthetic, for levobupivacaine: locally"}},
  "note": "Read-outs that look alike come from different tables or passages of the source.",
  "data": [
    {"compound": "CCN(CC)CCOC(=O)c1ccc(N)cc1Cl", "note": "[chloroprocaine]", "values": [
      {"measurement": "duration of action", "setting": "local anesthetic", "result": "0.5 to 1", "unit": "h"},
      {"measurement": "onset of action", "setting": "local anesthetic", "result": "6 to 12", "unit": "min"},
      {"measurement": "peak", "setting": "local anesthetic", "result": "10 to 20", "unit": "min"}
    ]},
    {"compound": "CCCCN1CCCC[C@H]1C(=O)Nc1c(C)cccc1C", "note": "[levobupivacaine]", "values": [
      {"measurement": "duration of action", "setting": "if used for epidural or peripheral nerve blocks or obstetrical anesthesia", "result": "3 to 9", "unit": "h"},
      {"measurement": "onset of action", "setting": "local anesthetic", "result": "2 to 10", "unit": "min"},
      {"measurement": "duration of action", "setting": "[1]", "result": "2 to 4", "unit": "h"}
    ]},
    {"compound": "Cc1cccc(C)c1NC(=O)C1CCCCN1C", "note": "(stereo not drawn) [mepivacaine]", "values": [
      {"measurement": "duration of action", "setting": "local anesthetic", "result": "0.75 to 1.5", "unit": "h"},
      {"measurement": "onset of action", "setting": "local anesthetic", "result": "3 to 5", "unit": "min"},
      {"measurement": "peak", "setting": "local anesthetic", "result": "15 to 45", "unit": "min"}
    ]},
    {"compound": "CCN(CC)CCOC(=O)c1ccc(N)cc1", "note": "[procaine]", "values": [
      {"measurement": "onset of action", "setting": "local anesthetic", "result": "5 to 10", "unit": "min"},
      {"measurement": "peak", "setting": "local anesthetic", "result": "less than 30 minutes"},
      {"measurement": "duration of action", "setting": "[1]", "result": "less than 2 hours"}
    ]},
    {"compound": "CCCN1CCCC[C@H]1C(=O)Nc1c(C)cccc1C", "note": "[ropivacaine]", "values": [
      {"measurement": "onset of action", "setting": "local anesthetic", "result": "1 to 15", "unit": "min"},
      {"measurement": "peak", "setting": "local anesthetic", "result": "20 to 45", "unit": "min"},
      {"measurement": "duration of action", "setting": "[1]", "result": "2 to 6", "unit": "h"}
    ]}
  ]
}
